Measured values from US20240383869A1, “ARYLACETYL INHIBITORS OF TG2 AND USES THEREOF” (UNIVERSITY OF OTTAWA, priority 2021, published 2024).
Like-named read-outs stand apart in the source and are kept apart here.

Target: T1, hTG2 (Homo sapiens, UniProt P21980)
T1 sequence (P21980 1-687): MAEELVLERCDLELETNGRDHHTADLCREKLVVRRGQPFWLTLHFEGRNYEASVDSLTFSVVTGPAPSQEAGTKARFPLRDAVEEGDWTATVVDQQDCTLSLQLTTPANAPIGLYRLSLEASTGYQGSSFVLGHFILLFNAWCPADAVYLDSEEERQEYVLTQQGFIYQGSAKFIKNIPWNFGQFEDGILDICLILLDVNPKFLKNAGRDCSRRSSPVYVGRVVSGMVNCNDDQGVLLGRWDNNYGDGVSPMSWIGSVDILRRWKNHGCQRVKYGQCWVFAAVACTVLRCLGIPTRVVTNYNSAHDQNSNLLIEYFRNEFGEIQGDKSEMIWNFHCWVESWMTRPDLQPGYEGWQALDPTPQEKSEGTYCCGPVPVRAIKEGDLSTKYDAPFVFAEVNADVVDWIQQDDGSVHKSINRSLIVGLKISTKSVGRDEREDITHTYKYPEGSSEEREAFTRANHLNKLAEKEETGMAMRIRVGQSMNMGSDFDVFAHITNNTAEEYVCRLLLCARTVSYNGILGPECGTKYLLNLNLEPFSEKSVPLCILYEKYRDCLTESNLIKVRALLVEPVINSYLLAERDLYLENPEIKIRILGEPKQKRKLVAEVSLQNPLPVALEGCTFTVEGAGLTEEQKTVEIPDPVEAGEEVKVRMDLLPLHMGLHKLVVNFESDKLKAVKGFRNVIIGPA
Assay: biochemical
Conditions: for Ki: read-out: KI (converted)
Experimental: The ability of the compounds to inhibit TG2 transamidase activity and the kinetics of TG2 inhibition were investigated using a colorimetric activity assay, as follows:
Colorimetric transamidase activity assay. The activities of hTG1, hTG2 and hTG6 were measured via a colorimetric assay using the chromogenic substrate Cbz-Glu(γ-p-nitrophenyl ester)Gly (AL5), as described (Leblanc, A. et al., “Kinetic studies of guinea pig liver transglutaminase reveal a general-base-catalyzed deacylation mechanism.” Biochemistry 2001, 40 (28), 8335-8342). Assays were conducted at 25° C. in 50 mM MOPS buffer (pH 6.95) containing 7.5 mM CaCl2. […] The substrate AL5 was prepared in as a stock solution in DMSO such that the final concentration of this co-solvent was constant at 2.5% v/v. Stock solutions of the inhibitors were made in water ranging in concentration from 100-500 μM. The reaction was initiated with the addition of enzyme, 0.10 μM hTG1, 0.25 μM hTG2 (4.6 mU/mL) or 0.32 μM hTG6. Formation of hydrolysis product, p-nitrophenolate (pNP), was monitored at 405 nm in a polystyrene 96-well microplate using a BioTek Synergy 4 plate reader. The observed first-order rate constants of inactivation (kobs) were determined via non-linear regression fit to a mono-exponential model (Eqn 1) of absorbance versus time curves. These rate constants (kobs) were in turn fit to a saturation kinetics model (Eqn 2), by non-linear regression, providing the kinetic parameters kinact and KI, as previously described by Stone and Hofsteenge (Stone, S. R. and Hofsteenge, J., “Specificity of activated human protein C.” Biochem. J. 1985, 230 (2), 497-502). […] Experiments were completed in triplicate at minimum.
Fitting of this time-dependent inactivation to a monoexponential equation gave first-order rate constants, kobs. […] In some cases, the kinetic data were fitted to a linear double reciprocal equation.

[1] = values determined using a double-reciprocal analysis
[2] = values determined using a double-reciprocal analysis, read-out: kinact (converted)
[3] = values determined using a double-reciprocal analysis, read-out: kinact/KI (converted)
[4] = fit to saturation kinetics model, 25° C., pH 6.95, 100 μM AL5
[5] = fit to saturation kinetics model, 25° C., pH 6.95, 100 μM AL5, read-out: kinact (converted)
[6] = fit to saturation kinetics model, 25° C., pH 6.95, 100 μM AL5, read-out: kinact/KI (converted)

| Compound | Ki [1] | kinact [2] | kinact/KI [3] | Ki [4] | kinact [5] | kinact/KI [6] | kinact | kinact/KI | kinact/KI (pH 6.95) |
| --- | --- | --- | --- | --- | --- | --- | --- | --- | --- |
| C=CC(=O)NCCCC[C@H](NC(=O)c1ccccn1)C(=O)N1CCN(C(=O)c2cccc3ccccc23)CC1 [Inhibitor 18, (S)-N-(1-(4-(1-Naphthoyl)piperazin-1-yl)-6-acrylamido-1-oxohexan-2-yl)picolinamide] | 41.4 ± 3.8 µM | 0.0065 s⁻¹ | 160 M⁻¹ s⁻¹ | – | – | – | – | – | – |
| C=CC(=O)NCCCC[C@H](NC(=O)C(C)C)C(=O)N1CCN(C(=O)c2cccc3ccccc23)CC1 [Inhibitor 39, (S)-N-(6-(4-(1-naphthoyl)piperazin-1-yl)-5-isobutyramido-6-oxohexyl)acrylamide] | – | – | – | 9.9 ± 1.4 µM | 0.0108 s⁻¹ | 1080 M⁻¹ s⁻¹ | – | – | – |
| C=CC(=O)NCCCC[C@H](NC(C)=O)C(=O)N1CCN(C(=O)c2cccc3ccccc23)CC1 [Inhibitor 41, (S)-N-(6-(4-(1-naphthoyl)piperazin-1-yl)-5-acetamido-6-oxohexyl)acrylamide] | 33 ± 14.5 µM | – | – | – | – | – | 0.0242 s⁻¹ | 735 M⁻¹ s⁻¹ | – |
| C=CC(=O)NCCCC[C@H](NC(=O)c1nccn1C)C(=O)N1CCN(C(=O)c2cccc3ccccc23)CC1 [Inhibitor 21, (S)-N-(1-(4-(1-naphthoyl)piperazin-1-yl)-6-acrylamido-1-oxohexan-2-yl)-1-methyl-1H-imidazole-2-carboxamide] | – | – | – | 15.7 ± 4.5 µM | 0.003 s⁻¹ | 192 M⁻¹ s⁻¹ | – | – | – |
| C=CC(=O)NCCCC[C@H](NC(=O)CCCc1ccccc1)C(=O)N1CCN(C(=O)c2cccc3ccccc23)CC1 [Inhibitor 69, (S)-N-(1-(4-(1-naphthoyl)piperazin-1-yl)-6-acrylamido-1-oxohexan-2-yl)-4-phenylbutanamide] | – | – | – | 5.3 ± 0.6 µM | 0.0035 s⁻¹ | 660 M⁻¹ s⁻¹ | – | – | – |
| C=CC(=O)NCCCC[C@H](NC(=O)c1ccccc1)C(=O)N1CCN(C(=O)c2cccc3ccccc23)CC1 [Inhibitor 61, (S)-N-(1-(4-(1-naphthoyl)piperazin-1-yl)-6-acrylamido-1-oxohexan-2-yl)benzamide] | 12 µM | – | – | 27.6 ± 8.1 µM | – | – | 0.0118 s⁻¹ | 983 M⁻¹ s⁻¹ | 807 M⁻¹ s⁻¹ |
| C=CC(=O)NCCCC[C@H](NS(C)(=O)=O)C(=O)N1CCN(C(=O)c2cccc3ccccc23)CC1 [Inhibitor 91, (S)-N-(6-(4-(1-naphthoyl)piperazin-1-yl)-5-(methylsulfonamido)-6-oxohexyl)acrylamide] | – | – | – | 25.3 ± 7.1 µM | 0.0095 s⁻¹ | 377 M⁻¹ s⁻¹ | – | – | – |
| C=CC(=O)NCCCC[C@H](NC(=O)CC1CCCCC1)C(=O)N1CCN(C(=O)c2cccc3ccccc23)CC1 [Inhibitor 34, (S)-N-(6-(4-(1-naphthoyl)piperazin-1-yl)-5-(2-cyclohexylacetamido)-6-oxohexyl)acrylamide] | – | – | – | 12.2 ± 2.4 µM | 0.00433 s⁻¹ | 348 M⁻¹ s⁻¹ | – | – | – |
| C=CC(=O)NCCCC[C@H](NC(=O)Cc1cccc(F)c1)C(=O)N1CCN(C(=O)c2cccc3ccccc23)CC1 [Inhibitor 71, (S)-N-(6-(4-(1-naphthoyl)piperazin-1-yl)-5-(2-(3-fluorophenyl)acetamido)-6-oxohexyl)acrylamide] | – | – | – | 4.9 ± 0.5 µM | 0.0125 s⁻¹ | 2580 M⁻¹ s⁻¹ | – | – | – |
| C=CC(=O)NCCCC[C@H](NC(=O)C1CCCCC1)C(=O)N1CCN(C(=O)c2cccc3ccccc23)CC1 [Inhibitor 35, (S)-N-(1-(4-(1-naphthoyl)piperazin-1-yl)-6-acrylamido-1-oxohexan-2-yl)cyclohexanecarboxamide] | – | – | – | 9.9 ± 1.3 µM | 0.0055 s⁻¹ | 560 M⁻¹ s⁻¹ | – | – | – |
| C=CC(=O)NCCCC[C@H](NC(=O)c1cccnc1)C(=O)N1CCN(C(=O)c2cccc3ccccc23)CC1 [Inhibitor 19, (S)-N-(1-(4-(1-naphthoyl)piperazin-1-yl)-6-acrylamido-1-oxohexan-2-yl)nicotinamide] | 25.4 ± 2.8 µM | 0.00983 s⁻¹ | 388 M⁻¹ s⁻¹ | – | – | – | – | – | – |
| C=CC(=O)NCCCC[C@H](NC(=O)C(C)(C)C)C(=O)N1CCN(C(=O)c2cccc3ccccc23)CC1 [Inhibitor 37, (S)-N-(6-(4-(1-naphthoyl)piperazin-1-yl)-6-oxo-5-pivalamidohexyl)acrylamide] | – | – | – | 8.8 ± 3.6 µM | 0.00817 s⁻¹ | 937 M⁻¹ s⁻¹ | – | – | – |
